Source: patent publication US9334244B2, “Compounds useful as inhibitors of ATR kinase” (Vertex Pharmaceuticals Incorporated, priority 2010, dated 2016)

target: T1, full-length ATR (Homo sapiens, UniProt Q13535); assay: ATR Inhibition Assay (radioactive-phosphate incorporation); assay type: biochemical; conditions: 5 nM full-length ATR, 10 μM [γ-33P]ATP, 800 μM target peptide, 25° C.; read-out: Ki value (Ki(app)) for inhibition of ATR
T1 construct: Assays were carried out at 25° C. in the presence of 5 nM full-length ATR
T1 sequence (Q13535 whole entry): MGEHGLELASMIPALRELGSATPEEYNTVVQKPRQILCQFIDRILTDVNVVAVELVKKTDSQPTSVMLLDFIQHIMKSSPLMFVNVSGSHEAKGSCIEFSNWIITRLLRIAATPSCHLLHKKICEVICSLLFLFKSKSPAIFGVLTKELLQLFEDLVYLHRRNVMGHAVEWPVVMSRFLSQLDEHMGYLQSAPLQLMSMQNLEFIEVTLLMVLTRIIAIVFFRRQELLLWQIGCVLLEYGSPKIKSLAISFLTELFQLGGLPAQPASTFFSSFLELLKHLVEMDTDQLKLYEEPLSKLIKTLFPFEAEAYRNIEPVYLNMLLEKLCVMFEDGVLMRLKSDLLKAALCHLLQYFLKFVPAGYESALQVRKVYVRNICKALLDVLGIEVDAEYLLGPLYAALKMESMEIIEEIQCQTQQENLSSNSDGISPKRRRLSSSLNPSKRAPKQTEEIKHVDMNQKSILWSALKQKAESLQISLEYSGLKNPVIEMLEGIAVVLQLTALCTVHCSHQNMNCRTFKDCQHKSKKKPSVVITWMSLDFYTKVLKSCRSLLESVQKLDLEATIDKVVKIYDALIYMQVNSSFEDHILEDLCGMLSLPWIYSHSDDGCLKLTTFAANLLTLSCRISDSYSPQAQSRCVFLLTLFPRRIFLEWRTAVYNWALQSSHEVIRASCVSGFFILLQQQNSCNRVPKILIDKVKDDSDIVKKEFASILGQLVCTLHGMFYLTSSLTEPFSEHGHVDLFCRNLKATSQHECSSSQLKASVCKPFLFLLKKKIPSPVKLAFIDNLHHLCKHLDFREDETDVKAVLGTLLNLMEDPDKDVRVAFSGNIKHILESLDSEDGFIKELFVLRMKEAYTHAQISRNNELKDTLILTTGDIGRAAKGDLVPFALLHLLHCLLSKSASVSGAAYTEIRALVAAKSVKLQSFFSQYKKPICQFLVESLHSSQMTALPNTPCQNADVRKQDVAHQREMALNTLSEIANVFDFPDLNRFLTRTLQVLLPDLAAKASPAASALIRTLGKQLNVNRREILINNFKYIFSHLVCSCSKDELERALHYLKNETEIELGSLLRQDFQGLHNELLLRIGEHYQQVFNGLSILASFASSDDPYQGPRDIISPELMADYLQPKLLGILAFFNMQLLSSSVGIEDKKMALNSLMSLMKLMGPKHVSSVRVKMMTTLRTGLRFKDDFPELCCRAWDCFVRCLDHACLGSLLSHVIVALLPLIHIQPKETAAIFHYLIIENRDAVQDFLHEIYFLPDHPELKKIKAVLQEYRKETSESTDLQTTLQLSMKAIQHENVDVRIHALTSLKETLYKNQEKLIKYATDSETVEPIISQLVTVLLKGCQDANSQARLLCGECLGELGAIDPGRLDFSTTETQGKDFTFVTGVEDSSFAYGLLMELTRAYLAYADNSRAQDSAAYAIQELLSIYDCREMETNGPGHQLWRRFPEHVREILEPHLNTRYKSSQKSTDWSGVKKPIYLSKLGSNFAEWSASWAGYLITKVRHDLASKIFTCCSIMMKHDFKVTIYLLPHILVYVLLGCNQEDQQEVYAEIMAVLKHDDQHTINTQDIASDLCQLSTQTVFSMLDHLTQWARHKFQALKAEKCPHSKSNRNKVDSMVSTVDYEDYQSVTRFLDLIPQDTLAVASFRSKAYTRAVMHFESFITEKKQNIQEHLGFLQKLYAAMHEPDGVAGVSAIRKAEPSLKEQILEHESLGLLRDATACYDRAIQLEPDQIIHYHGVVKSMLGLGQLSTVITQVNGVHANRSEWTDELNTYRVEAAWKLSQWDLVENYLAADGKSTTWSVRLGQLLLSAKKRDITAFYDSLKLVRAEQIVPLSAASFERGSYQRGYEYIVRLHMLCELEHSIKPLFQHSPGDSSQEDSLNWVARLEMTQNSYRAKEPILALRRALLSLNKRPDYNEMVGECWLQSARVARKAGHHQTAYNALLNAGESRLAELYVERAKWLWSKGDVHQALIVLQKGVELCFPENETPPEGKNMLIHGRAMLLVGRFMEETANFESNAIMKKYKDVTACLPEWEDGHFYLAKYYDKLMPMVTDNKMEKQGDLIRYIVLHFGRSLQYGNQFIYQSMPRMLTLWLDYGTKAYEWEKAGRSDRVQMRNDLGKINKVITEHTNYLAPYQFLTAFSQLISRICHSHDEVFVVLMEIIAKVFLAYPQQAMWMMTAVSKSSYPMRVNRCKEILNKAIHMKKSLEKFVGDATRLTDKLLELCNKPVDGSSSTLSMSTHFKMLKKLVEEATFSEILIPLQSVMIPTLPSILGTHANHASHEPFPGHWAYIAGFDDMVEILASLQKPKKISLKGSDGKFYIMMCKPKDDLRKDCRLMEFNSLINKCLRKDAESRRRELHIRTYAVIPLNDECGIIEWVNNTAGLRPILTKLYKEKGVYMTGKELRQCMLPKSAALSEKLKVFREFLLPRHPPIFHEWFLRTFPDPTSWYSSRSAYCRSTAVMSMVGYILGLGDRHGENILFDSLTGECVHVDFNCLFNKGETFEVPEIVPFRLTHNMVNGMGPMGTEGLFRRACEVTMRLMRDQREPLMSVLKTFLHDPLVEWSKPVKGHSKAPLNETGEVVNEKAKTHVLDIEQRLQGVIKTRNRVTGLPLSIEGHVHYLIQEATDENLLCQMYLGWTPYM
Method: Compounds were screened for their ability to inhibit ATR kinase using a radioactive-phosphate incorporation assay. Assays were carried out in a mixture of 50 mM Tris/HCl (pH 7.5), 10 mM MgCl2 and 1 mM DTT. Final substrate concentrations were 10 μM [γ-^33P]ATP (3mCi 33P ATP/mmol ATP, Perkin Elmer) and 800 μM target peptide ([…]).
Assays were carried out at 25° C. in the presence of 5 nM full-length ATR. An assay stock buffer solution was prepared containing all of the reagents listed above, with the exception of ATP and the test compound of interest. 13.5 μL of the stock solution was placed in a 96 well plate followed by addition of 2 μL of DMSO stock containing serial dilutions of the test compound (typically starting from a final concentration of 15 μM with 3-fold serial dilutions) in duplicate (final DMSO concentration 7%). The plate was pre-incubated for 10 minutes at 25° C. and the reaction initiated by addition of 15 μl [γ-^33P]ATP (final concentration 10 μM).
The reaction was stopped after […] by the addition of 30 μL 0.1M phosphoric acid containing 2 mM ATP. A multiscreen phosphocellulose filter 96-well plate (Millipore, Cat no. MAPHN0B50) was pretreated with 100 μL 0.2M phosphoric acid prior to the addition of 45 μL of the stopped assay mixture. The plate was washed with 5×200 μL 0.2M phosphoric acid. After drying, 100 μL Optiphase ‘SuperMix’ liquid scintillation cocktail (Perkin Elmer) was added to the well prior to scintillation counting (1450 Microbeta Liquid Scintillation Counter, Wallac).
After removing mean background values for all of the data points, Ki(app) data were calculated from non-linear regression analysis of the initial rate data using the Prism software package (GraphPad Prism version 3.0cx for Macintosh, GraphPad Software, San Diego Calif., USA).

SMILES | Ki [nM]
CNCc1ccc(-c2cc(-c3cncc(-c4ccc(S(=O)(=O)C(C)C)cc4)n3)on2)cc1 [Compound IV-3, 1-(4-(5-(6-(4-(isopropylsulfonyl)phenyl)pyrazin-2-yl)isoxazol-3-yl)phenyl)-N-methylmethanamine] | < 100
Cc1ncc(-c2ccc(S(C)(=O)=O)cc2)nc1C(=O)Nc1ccccc1 [Compound IV-1, 3-Methyl-6-(4-(methylsulfonyl)phenyl)-N-phenylpyrazine-2-carboxamide] | 250 to 500
CC(C)S(=O)(=O)c1ccc(-c2cncc(-c3cc(-c4ccccc4)no3)n2)cc1 [Compound IV-2, 5-(6-(4-(isopropylsulfonyl)phenyl)pyrazin-2-yl)-3-phenylisoxazole] | 100 to 250
